The source made the active and inactive calls. The calls are words filed in the database; no cut-off is given here.
Experiments:
Legumain (Homo sapiens) = target: T1, Legumain (Homo sapiens) (UniProt Q99538); test: Inhibition of AEP (unknown origin) assessed as residual activity at 1 uM using Cbz-Ala-Ala-Asn-AMC as substrate after 15 mins by fluorescence assay relative to control
T1 sequence (whole entry): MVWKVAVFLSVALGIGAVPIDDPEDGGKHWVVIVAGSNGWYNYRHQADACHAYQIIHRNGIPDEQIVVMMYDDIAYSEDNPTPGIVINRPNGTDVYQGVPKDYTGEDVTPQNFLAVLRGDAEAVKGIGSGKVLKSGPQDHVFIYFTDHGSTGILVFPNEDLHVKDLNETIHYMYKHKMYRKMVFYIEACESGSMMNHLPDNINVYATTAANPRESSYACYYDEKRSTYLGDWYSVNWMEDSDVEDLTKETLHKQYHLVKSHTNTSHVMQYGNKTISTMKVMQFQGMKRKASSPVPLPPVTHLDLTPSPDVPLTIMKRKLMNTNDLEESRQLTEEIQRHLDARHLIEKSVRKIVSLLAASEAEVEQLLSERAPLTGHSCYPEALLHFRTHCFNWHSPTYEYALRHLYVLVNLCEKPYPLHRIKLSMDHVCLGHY

Cathepsin S = Cathepsin S (Homo sapiens, UniProt P25774); test: Inhibition of cathepsin-S (unknown origin)
Cathepsin S, sequence (P25774 whole entry): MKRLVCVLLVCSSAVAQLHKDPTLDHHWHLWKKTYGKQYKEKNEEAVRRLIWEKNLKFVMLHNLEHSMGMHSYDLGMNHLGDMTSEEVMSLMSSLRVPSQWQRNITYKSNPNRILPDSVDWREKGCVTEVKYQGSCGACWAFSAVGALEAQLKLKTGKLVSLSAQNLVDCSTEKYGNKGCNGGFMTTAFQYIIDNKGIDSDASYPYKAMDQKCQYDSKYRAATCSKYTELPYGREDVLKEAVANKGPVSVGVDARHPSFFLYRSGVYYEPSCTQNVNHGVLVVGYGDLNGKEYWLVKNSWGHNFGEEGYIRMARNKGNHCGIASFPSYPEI

[1] = Inhibition of cathepsin-L (unknown origin); design: species or system Homo sapiens
Caspase-8 = Caspase-8 (Homo sapiens, UniProt Q14790); test: Inhibition of caspase-8 (unknown origin)
Caspase-8, sequence (Q14790 217-374 limits assumed): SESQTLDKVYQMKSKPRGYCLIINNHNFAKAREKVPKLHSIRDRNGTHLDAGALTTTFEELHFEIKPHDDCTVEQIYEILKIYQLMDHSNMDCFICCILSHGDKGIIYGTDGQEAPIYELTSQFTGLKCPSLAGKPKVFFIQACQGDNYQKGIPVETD
Caspase-8, sequence (Q14790 385-479 limits assumed): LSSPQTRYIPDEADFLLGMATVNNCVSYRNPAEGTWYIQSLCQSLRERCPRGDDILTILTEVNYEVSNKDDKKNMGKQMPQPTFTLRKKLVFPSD

Caspase-3 = target: T2, Caspase-3 (Homo sapiens, UniProt P42574); test: Inhibition of caspase-3 (unknown origin)
T2 sequence (P42574 whole entry): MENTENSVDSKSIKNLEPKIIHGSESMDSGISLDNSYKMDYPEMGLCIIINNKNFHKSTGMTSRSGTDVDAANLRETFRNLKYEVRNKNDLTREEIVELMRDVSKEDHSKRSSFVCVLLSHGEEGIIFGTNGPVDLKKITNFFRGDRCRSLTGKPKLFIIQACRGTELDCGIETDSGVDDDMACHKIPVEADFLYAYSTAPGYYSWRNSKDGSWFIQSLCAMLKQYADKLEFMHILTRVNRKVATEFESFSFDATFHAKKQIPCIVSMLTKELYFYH

MDA-MB-231 [2] = test: Anti-invasive activity against human MDA-MB-231 cells harboring AEP siRNA up to 2 uM by crystal violet staining based microscopic method; type: functional, cell-based
MDA-MB-231 [3] = test: Inhibition of MMP2 cleavage in human MDA-MB-231 cells harboring AEP siRNA up to 10 uM by gelatin zymography assay; type: functional, cell-based
MDA-MB-435 [4] = test: Anti-invasive activity against human MDA-MB-435 cells by crystal violet staining based microscopic method; type: functional, cell-based
MDA-MB-435 [5] = test: Anti-migratory activity against human MDA-MB-435 cells up to 2 uM by transwell assay relative to control; type: functional
Mus musculus [6] = test: Toxicity in nude mouse xenografted with human MDA-MB-231 cells assessed as effect on blood count at 3 to 10 mg/kg, po via gavage for 42 consecutive days by hematoxylin and eosin staining based microscopic method; type: organism-based; conditions: in vivo
Mus musculus [7] = test: Toxicity in nude mouse xenografted with human MDA-MB-231 cells assessed as increase in spleen size at 3 to 10 mg/kg, po via gavage for 42 consecutive days; type: organism-based; conditions: in vivo
MDA-MB-435 [8] = test: Cytotoxicity against human MDA-MB-435 cells assessed as reduction in cell viability up to 2 uM by MTT assay; type: cell-based
MDA-MB-435 [9] = test: Anti-invasive activity against human MDA-MB-435 cells harboring AEP siRNA up to 2 uM by crystal violet staining based microscopic method; type: functional, cell-based
Mus musculus [10] = test: Toxicity in nude mouse xenografted with human MDA-MB-231 cells assessed as abnormality in bone marrow at 3 to 10 mg/kg, po via gavage for 42 consecutive days by hematoxylin and eosin staining based microscopic method; type: organism-based; conditions: in vivo
MDA-MB-231 [11] = test: Antitumor activity against human MDA-MB-231 cells xenografted in nude mouse assessed as metastatic nodules on lungs at 3 mg/kg, po via gavage for 42 consecutive days by hematoxylin and eosin staining based microscopic method relative to control; type: functional
MDA-MB-231 [12] = test: Anti-migratory activity against human MDA-MB-231 cells up to 2 uM by transwell assay relative to control; type: functional
MDA-MB-231 [13] = test: Cytotoxicity against human MDA-MB-231 cells assessed as reduction in cell viability up to 2 uM by MTT assay; type: cell-based
MDA-MB-231 [14] = test: Anti-invasive activity against human MDA-MB-231 cells by crystal violet staining based microscopic method; type: functional, cell-based
MDA-MB-435 [15] = test: Anti-invasive activity against human MDA-MB-435 cells at 2 uM by crystal violet staining based microscopic method relative to control; type: functional
Mus musculus [16] = test: Toxicity in nude mouse xenografted with human MDA-MB-231 cells assessed as body weight loss at 3 to 10 mg/kg, po via gavage for 42 consecutive days; type: organism-based; conditions: in vivo
MDA-MB-231 [17] = test: Anti-invasive activity against human MDA-MB-231 cells at 2 uM by crystal violet staining based microscopic method relative to control; type: functional
MDA-MB-231 [18] = test: Cytotoxicity against human MDA-MB-231 cells assessed as reduction in cell viability up to 10 uM by MTT assay; type: cell-based
MDA-MB-231 [19] = test: Antitumor activity against human MDA-MB-231 cells xenografted in nude mouse assessed as reduction in mammary tumor weight at 3 to 10 mg/kg, po via gavage for 42 consecutive days; type: functional, organism-based
Mus musculus [20] = test: Reduction in ratio of cleaved MMP2 to full-length MMP2 in mammary tumor of nude mouse xenografted with human MDA-MB-231 cells at 3 to 10 mg/kg, po via gavage for 42 consecutive days by gelatin zymography assay; type: functional, organism-based
Mus musculus [21] = test: Toxicity in nude mouse xenografted with human MDA-MB-231 cells assessed as abnormality in kidney at 3 to 10 mg/kg, po via gavage for 42 consecutive days by hematoxylin and eosin staining based microscopic method; type: organism-based; conditions: in vivo
MDA-MB-231 [22] = test: Antitumor activity against human MDA-MB-231 cells xenografted in nude mouse assessed as metastatic nodules on lungs at 10 mg/kg, po via gavage for 42 consecutive days by hematoxylin and eosin staining based microscopic method relative to control; type: functional
Mus musculus [23] = test: Toxicity in nude mouse xenografted with human MDA-MB-231 cells assessed as abnormality in liver at 3 to 10 mg/kg, po via gavage for 42 consecutive days by hematoxylin and eosin staining based microscopic method; type: organism-based; conditions: in vivo
Legumain [24] = target: T3, Legumain (Homo sapiens, UniProt Q99538); test: Inhibition of AEP (unknown origin) using Cbz-Ala-Ala-Asn-AMC as substrate after 15 mins by fluorescence assay
T3 sequence (Q99538 whole entry): T1 sequence (whole entry)

Homo sapiens = organism: Homo sapiens; test: Selectivity ratio of IC50 for cathepsin-L (unknown origin) to IC50 for AEP (unknown origin)
[25] = Apparent permeability across apical to basolateral side in human Caco2 cells after 2 hrs by LC-MS/MS method; type: ADME, cell-based; conditions: caco-2, 2 h
[26] = Apparent permeability across basolateral to apical side in human Caco2 cells after 2 hrs by LC-MS/MS method; type: ADME, cell-based; conditions: caco-2, 2 h
Legumain (Mus musculus) = target: T4, Legumain (Mus musculus) (UniProt O89017); test: Inhibition of AEP in mouse kidney by HTS assay
T4 sequence (whole entry): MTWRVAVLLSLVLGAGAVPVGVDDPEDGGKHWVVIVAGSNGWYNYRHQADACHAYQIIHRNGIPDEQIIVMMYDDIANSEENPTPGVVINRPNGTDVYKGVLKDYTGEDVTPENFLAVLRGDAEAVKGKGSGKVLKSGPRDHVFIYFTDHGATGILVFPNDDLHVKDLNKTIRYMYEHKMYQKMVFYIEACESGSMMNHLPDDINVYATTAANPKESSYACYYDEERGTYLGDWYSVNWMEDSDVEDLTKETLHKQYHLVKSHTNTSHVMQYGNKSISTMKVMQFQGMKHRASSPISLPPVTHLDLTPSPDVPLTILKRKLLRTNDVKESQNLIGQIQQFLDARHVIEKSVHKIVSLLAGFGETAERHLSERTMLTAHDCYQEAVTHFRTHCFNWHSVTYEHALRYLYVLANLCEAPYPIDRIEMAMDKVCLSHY

Legumain [27] = target: T3, Legumain; test: Competitive inhibition of AEP (unknown origin) using varying levels of Z-AAN-AMC substrate after 10 mins by Lineweaver-Burk plot analysis

## Cn1c(=O)[nH]c(=O)c2c1nc(S)n2C[C@H](O)CO
Legumain (Homo sapiens)
  Activity: 85.4%

## Cn1c(S)nc2c1c(=O)n(Cc1ccccc1)c(=O)n2C
Cathepsin S
  IC50: > 200 µM
[1]
  IC50: > 200 µM
Caspase-8
  IC50: > 200 µM
Caspase-3
  IC50: > 200 µM

## Cc1ccc(Cn2c(S)nc3c2c(=O)n(C)c(=O)n3C)cc1
Legumain (Homo sapiens)
  Activity: 17.2%

## Cn1c(=O)c2c(ncn2C)n(C)c1=O
Legumain (Homo sapiens)
  Activity: 74.3%

## Cc1ncc2c(=O)[nH]c(=O)n(C)c2n1
Legumain (Homo sapiens)
  Activity: 91.9%

## CCCn1c(S)nc2c1c(=O)[nH]c(=O)n2C
Legumain (Homo sapiens)
  Activity: 14.9%

## Cn1c(=O)c2c(nc(S(=O)(=O)c3ccccc3)n2C)n(C)c1=O
Legumain (Homo sapiens)
  Activity: 98.9%

## C=CCn1c(S)nc2c1c(=O)n(C)c(=O)n2C
Legumain (Homo sapiens)
  Activity: 18.1%

## CCn1c(S)nc2c1c(=O)n(C)c(=O)n2C
Legumain (Homo sapiens)
  Activity: 15.9%

## CCn1c(=O)c2c(nc(S)n2C)n(C)c1=O
MDA-MB-231 [2]
  Activity: inactive
MDA-MB-231 [3]
  inhibition: inactive
MDA-MB-435 [4]
  Activity: Dose-dependent effect
MDA-MB-435 [5]
  inhibition (INH): 40%
Cathepsin S
  IC50: > 200 µM
Mus musculus [6]
  Activity: Non-Toxic
Mus musculus [7]
  Activity: Toxic
MDA-MB-435 [8]
  Activity: Non-Toxic
MDA-MB-435 [9]
  Activity: inactive
Mus musculus [10]
  Activity: Non-Toxic
MDA-MB-231 [11]
  Activity: 33%
[1]
  IC50: 162 µM
MDA-MB-231 [12]
  inhibition (INH): 25%
MDA-MB-231 [13]
  Activity: Non-Toxic
MDA-MB-231 [14]
  Activity: Dose-dependent effect
MDA-MB-435 [15]
  inhibition at 2 µM: 75%
Mus musculus [16]
  Activity: Non-Toxic
MDA-MB-231 [17]
  inhibition at 2 µM: 75%
MDA-MB-231 [18]
  Activity: Non-Toxic
MDA-MB-231 [19]
  Activity: Active
Mus musculus [20]
  Activity: Active
Mus musculus [21]
  Activity: Non-Toxic
MDA-MB-231 [22]
  Activity: 17%
Caspase-8
  IC50: > 200 µM
Caspase-3
  IC50: > 200 µM
Mus musculus [23]
  Activity: Non-Toxic

## COc1ccc(OC[C@@H](O)Cn2c(S)nc3c2c(=O)[nH]c(=O)n3C)cc1
Legumain (Homo sapiens)
  Activity: 18.5%

## Cn1c(=O)n(Cc2ccccc2)c(=O)c2c1nc(S)n2Cc1ccccc1
Legumain (Homo sapiens)
  Activity: 17.2%

## CC(C)Cn1c(S)nc2c1c(=O)[nH]c(=O)n2C
Legumain (Homo sapiens)
  Activity: 15.7%

## CCCCn1c(S)nc2c1c(=O)[nH]c(=O)n2C
Legumain (Homo sapiens)
  Activity: 14.8%

## Cn1c(=O)c2c(nc(S(C)(=O)=O)n2C)n(C)c1=O
Legumain (Homo sapiens)
  Activity: 98.3%

## CC[C@H](C)n1c(S)nc2c1c(=O)[nH]c(=O)n2C
Legumain (Homo sapiens)
  Activity: 14.1%

## Cn1c(=O)[nH]c(=O)c2c1nc(S)n2C[C@H](O)COc1ccccc1
Legumain (Homo sapiens)
  Activity: 34.6%

## COCCn1c(S)nc2c1c(=O)[nH]c(=O)n2C
Legumain (Homo sapiens)
  Activity: 13.8%

## Cn1c(S)nc2c1c(=O)[nH]c(=O)n2C
Legumain (Homo sapiens)
  Activity: 11.5%

## Cn1ccnc1Sc1nc2c(c(=O)n(C)c(=O)n2C)n1C
Legumain (Homo sapiens)
  Activity: 100%

## Cn1c(=O)c2c(nc(S)n2C)n(C)c1=O
Cathepsin S
  IC50: > 200 µM
Legumain (Homo sapiens)
  Activity: 16.1%
Legumain [24]
  IC50: 0.18 µM
[1]
  IC50: 80.5 µM
Homo sapiens
  Ratio IC50: 500
Caspase-8
  IC50: > 200 µM
Caspase-3
  IC50: 185 µM

## CC(=O)Cn1c(S)nc2c1c(=O)[nH]c(=O)n2C
Legumain (Homo sapiens)
  Activity: 69.4%

## Cc1ccc(Cn2c(S)nc3c2c(=O)[nH]c(=O)n3C)cc1
Legumain (Homo sapiens)
  Activity: 12.3%

## CC(C)n1c(S)nc2c1c(=O)n(C)c(=O)n2C
Legumain (Homo sapiens)
  Activity: 17.8%

## CCn1c(S)nc2c1c(=O)[nH]c(=O)n2C
Legumain (Homo sapiens)
  Activity: 13.8%

## Cn1c(=O)[nH]c(=O)c2c1nc(S)n2CC(O)COc1ccc(Cl)cc1 (stereo unspecified)
[25]
  Papp: 1.1 ×10⁻⁶ cm/s
[26]
  Papp: 20.3 ×10⁻⁶ cm/s
Cathepsin S
  IC50: > 200 µM
[1]
  IC50: > 200 µM
Legumain (Mus musculus)
  inhibition: Active
Legumain [27]
  Ki: 0.105 µM

## CSc1nc2c(c(=O)n(C)c(=O)n2C)n1C
Legumain (Homo sapiens)
  Activity: 70.5%
